Results on 25 molecules are retold here after patent US20170334899A1, “AMINO-SUBSTITUTED ISOTHIAZOLES” (Bayer Pharma Aktiengesellschaft, priority 2014, published 2017).

Structures are written as SMILES. Where “and” joins values, the source holds several entries; their conditions need not be identical. Equal values may be shown once. Where only a bound is given, the exact number is not on record here.

The target of this test is T1, human kinase Mps-1 (Homo sapiens, UniProt P33981).
T1 construct: N-terminally GST-tagged human full length recombinant Mps-1 kinase; GST (N); purchased Invitrogen, Karslruhe, Germany PV4071
T1 sequence (P33981 1-857): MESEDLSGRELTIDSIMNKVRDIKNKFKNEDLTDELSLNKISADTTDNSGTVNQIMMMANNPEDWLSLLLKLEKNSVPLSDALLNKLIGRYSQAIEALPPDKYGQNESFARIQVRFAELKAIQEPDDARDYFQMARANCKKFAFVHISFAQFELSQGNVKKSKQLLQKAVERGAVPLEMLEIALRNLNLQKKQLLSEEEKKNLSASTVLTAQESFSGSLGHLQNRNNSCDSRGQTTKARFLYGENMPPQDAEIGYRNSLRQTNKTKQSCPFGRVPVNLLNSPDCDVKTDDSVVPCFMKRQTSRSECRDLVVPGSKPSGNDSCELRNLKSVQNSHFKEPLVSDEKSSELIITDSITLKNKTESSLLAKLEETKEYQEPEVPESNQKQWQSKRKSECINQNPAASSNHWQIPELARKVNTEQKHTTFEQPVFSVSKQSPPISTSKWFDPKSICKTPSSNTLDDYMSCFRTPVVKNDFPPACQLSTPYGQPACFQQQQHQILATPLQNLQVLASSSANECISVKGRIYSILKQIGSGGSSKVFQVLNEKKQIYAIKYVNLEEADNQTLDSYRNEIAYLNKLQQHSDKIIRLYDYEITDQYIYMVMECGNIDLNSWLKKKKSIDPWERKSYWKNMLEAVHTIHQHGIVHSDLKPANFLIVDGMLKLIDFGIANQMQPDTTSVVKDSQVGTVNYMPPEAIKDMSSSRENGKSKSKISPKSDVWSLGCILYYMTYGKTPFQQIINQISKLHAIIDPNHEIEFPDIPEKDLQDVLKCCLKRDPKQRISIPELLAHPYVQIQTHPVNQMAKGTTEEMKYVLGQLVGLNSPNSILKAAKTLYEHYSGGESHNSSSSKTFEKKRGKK
As to the kind of experiment: Mps-1 kinase assay (TR-FRET). It counts as biochemical. The following applies: Mps-1 TR-FRET kinase assay; avg; read-out: Mps1 avg (IC50 [mol/l]). The method, boiled down:
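GST-tagged full-length recombinant human Mps-1 (~0.5 nM) pre-incubated 15 min with compound, then reacted 60 min at 22 °C with 10 μM ATP and 1 μM biotinylated peptide in Hepes pH 7.7 buffer. EDTA-stopped; TR-FRET (Eu anti-phospho-Ser/Thr to SA-XLent) 665/620 nm ratio normalised to no-inhibitor and no-enzyme controls.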
As for `Cc1nsc(Nc2cnc(C(F)(F)F)cn2)c1C(=O)Nc1ccc(OCCN)c(F)c1` [Example 221, 3-N-[4-(2-aminoethoxy)-3-fluorophenyl]-3-methyl-5-{[5-(trifluoromethyl)pyrazin-2-yl]amino}-1,2-thiazole-4-carboxamide], the IC50 was > 20 µM.
For `Cc1nsc(Nc2cncc(C(F)(F)F)n2)c1C(=O)Nc1ccc(C(=O)NC2CCN(C(=O)OC(C)(C)C)CC2)cc1` [Example 222, tert-butyl 4-[(4-{[(3-methyl-5-{[6-(trifluoromethyl)pyrazin-2-yl]amino}-1,2-thiazol-4-yl)carbonyl]amino}benzoyl)amino] piperidine-1-carboxylate], the IC50 was > 20 µM.
For `Cc1nsc(Nc2cncc(C(F)(F)F)n2)c1C(=O)Nc1ccc(OC2CCN(CCF)CC2)c(F)c1` [Example 223, N-(3-fluoro-4-{[1-(2-fluoroethyl)piperidin-4-yl]oxy}phenyl)-3-methyl-5-{[6-(trifluoromethyl)pyrazin-2-yl]amino}-1,2-thiazole-4-carboxamide] the value was > 20 µM; for `Cc1nsc(Nc2cncc(C(F)(F)F)n2)c1C(=O)Nc1ccc(OC2CCN(CC(F)F)CC2)c(F)c1` [Example 224, N-(4-{[1-(2,2-difluoroethyl)piperidin-4-yl]oxy}-3-fluorophenyl)-3-methyl-5-{[6-(trifluoromethyl)pyrazin-2-yl]amino}-1,2-thiazole-4-carboxamide], > 20 µM.
With `Cc1nsc(Nc2cncc(C(F)(F)F)n2)c1C(=O)Nc1ccc(C(=O)NC2CCN(CC(F)F)CC2)cc1` [Example 225, N-N-(4-{[1-(2,2-difluoroethyl)piperidin-4-yl]carbamoyl}phenyl)-3-methyl-5-{[6-(trifluoromethyl)pyrazin-2-yl]amino}-1,2-thiazole-4-carboxamide], the IC50 was > 20 µM.
As for `Cc1nsc(Nc2cncc(C(F)(F)F)n2)c1C(=O)Nc1ccc(OCC2CCN(C(=O)OC(C)(C)C)CC2)nc1` [Example 226, tert-butyl 4-{[(5-{[(3-methyl-5-{[6-(trifluoromethyl)pyrazin-2-yl]amino}-1,2-thiazol-4-yl)carbonyl]amino}pyridin-2-yl)oxy]methyl}piperidine-1-carboxylate], the IC50 was > 20 µM.
For `Cc1nsc(Nc2cnc(C(F)(F)F)cn2)c1C(=O)Nc1ccc(OCC2CCN(C(=O)OC(C)(C)C)CC2)nc1` [Example 227, tert-butyl 4-{[(5-{[(3-methyl-5-{[5-(trifluoromethyl)pyrazin-2-yl]amino}-1,2-thiazol-4-yl)carbonyl]amino}pyridin-2-yl)oxy]methyl}piperidine-1-carboxylate], the IC50 was > 20 µM.
`Cc1nsc(Nc2cnc(C(F)(F)F)cn2)c1C(=O)Nc1ccc(OCC2CCCN(C(=O)OC(C)(C)C)C2)nc1` (stereo not shown) [Example 228, tert-butyl 3-{[(5-{[(3-methyl-5-{[5-(trifluoromethyl)pyrazin-2-yl]amino}-1,2-thiazol-4-yl)carbonyl]amino}pyridin-2-yl)oxy]methyl}piperidine-1-carboxylate]: the IC50 is > 20 µM.
As for `Cc1nsc(Nc2cnc(C(F)(F)F)cn2)c1C(=O)Nc1ccc(F)c(OC2CCN(C(=O)OC(C)(C)C)CC2)c1` [Example 229, tert-butyl 4-(2-fluoro-5-{[(3-methyl-5-{[5-(trifluoromethyl)pyrazin-2-yl]amino}-1,2-thiazol-4-yl)carbonyl]amino}phenoxy)piperidine-1-carboxylate], the figure is > 20 µM.
For `Cc1nsc(Nc2cc(C#N)ccn2)c1C(=O)Nc1ccc(Oc2cccc(C(F)(F)F)c2)nc1` [Example 230, 5-[(4-cyanopyridin-2-yl)amino]-3-methyl-N-{6-[3-(trifluoromethyl)phenoxy]pyridin-3-yl}-1,2-thiazole-4-carboxamide] the value was > 20 µM; for `Cc1nsc(Nc2cnc3ccccc3n2)c1C(=O)Nc1ccc(Oc2cccnc2)nc1` [Example 231, 3-methyl-N-[6-(pyridin-3-yloxy)pyridin-3-yl]-5-(quinoxalin-2-ylamino)-1,2-thiazole-4-carboxamide], > 20 µM.
For `Cc1nsc(Nc2cnc3ccccc3n2)c1C(=O)Nc1ccc(Oc2ccc(SC(F)(F)F)cc2)nc1` [Example 233, 3-methyl-5-(quinoxalin-2-ylamino)-N-(6-{4-[(trifluoromethyl)sulfanyl]phenoxy}pyridin-3-yl)-1,2-thiazole-4-carboxamide], the IC50 was > 20 µM.
Regarding `Cc1nsc(Nc2cnc3ccccc3n2)c1C(=O)Nc1ccc(NC2CCN(C(=O)OC(C)(C)C)CC2)nc1` [Example 234, tert-butyl 4-{[5-({[3-methyl-5-(quinoxalin-2-ylamino)-1,2-thiazol-4-yl]carbonyl}amino)pyridin-2-yl]amino}piperidine-1-carboxylate], the IC50 was > 20 µM.
As to `COc1ccc(NC(=O)c2c(C)nsc2Nc2cnc3ccccc3n2)c(CC#N)n1` [Example 235, N-[2-(cyanomethyl)-6-methoxypyridin-3-yl]-3-methyl-5-(quinoxalin-2-ylamino)-1,2-thiazole-4-carboxamide], the IC50 was found to be 12 µM.
For `Cc1nsc(Nc2cnc3ccccc3n2)c1C(=O)Nc1ccc(NCCC(=O)OC(C)(C)C)nc1` [Example 236, tert-butyl N-[5-({[3-methyl-5-(quinoxalin-2-ylamino)-1,2-thiazol-4-yl]carbonyl}amino)pyridin-2-yl]-beta-alaninate], the IC50 is > 20 µM and 14 µM.
For the molecule `COC(=O)c1cc(NC(=O)c2c(C)nsc2Nc2cnc3ccccc3n2)cc(C(=O)OC)c1` [Example 237, dimethyl 5-({[3-methyl-5-(quinoxalin-2-ylamino)-1,2-thiazol-4-yl]carbonyl}amino)isophthalate], the IC50 was > 20 µM.
Turning to `Cc1nsc(Nc2cc(C#N)ccn2)c1C(=O)Nc1cccc(C(=O)OC(C)(C)C)c1` [Example 239, tert-butyl 3-[({5-[(4-cyanopyridin-2-yl)amino]-3-methyl-1,2-thiazol-4-yl}carbonyl)amino]benzoate], the IC50 is > 20 µM.
Regarding `Cc1nsc(Nc2ccc(C#N)cn2)c1C(=O)Nc1cccc(C(=O)OC(C)(C)C)c1` [Example 240, tert-butyl 3-[({5-[(5-cyanopyridin-2-yl)amino]-3-methyl-1,2-thiazol-4-yl}carbonyl)amino]benzoate], the IC50 was > 20 µM.
Turning to `Cc1nsc(Nc2cnc3ccccc3n2)c1C(=O)Nc1ccc(NC2CCCN(C(=O)OC(C)(C)C)C2)nc1` (stereo not shown) [Example 241, tert-butyl 3-{[5-({[3-methyl-5-(quinoxalin-2-ylamino)-1,2-thiazol-4-yl]carbonyl}amino)pyridin-2-yl]amino}piperidine-1-carboxylate], the IC50 is > 20 µM.
With `Cc1nsc(Nc2cc(C#N)ccn2)c1C(=O)Nc1ccc(NC2CCCNC2)nc1` (stereo not shown) [Example 242, 5-[(4-cyanopyridin-2-yl)amino]-3-methyl-N-[6-(piperidin-3-ylamino)pyridin-3-yl]-1,2-thiazole-4-carboxamide], the IC50 is > 20 µM.
With `Cc1cc(C)n(-c2ccccc2NC(=O)c2c(C)nsc2Nc2cnc3ccccc3n2)n1` [Example 243, N-[2-(3,5-dimethyl-1H-pyrazol-1-yl)phenyl]-3-methyl-5-(quinoxalin-2-ylamino)-1,2-thiazole-4-carboxamide], the IC50 is > 20 µM.
As for `Cc1nsc(Nc2cnc3ccccc3n2)c1C(=O)Nc1ccc(NCCNC(=O)OC(C)(C)C)nc1` [Example 244, tert-butyl (2-{[5-({[3-methyl-5-(quinoxalin-2-ylamino)-1,2-thiazol-4-yl]carbonyl}amino)pyridin-2-yl]amino}ethyl)carbamate], the figure is > 20 µM; as for `Cc1nsc(Nc2cnc3ccccc3n2)c1C(=O)Nc1ccc(Nc2ccc(F)c(F)c2)nc1` [Example 245, N-{6-[(3,4-difluorophenyl)amino]pyridin-3-yl}-3-methyl-5-(quinoxalin-2-ylamino)-1,2-thiazole-4-carboxamide], > 20 µM and 19 µM; as for `Cc1nsc(Nc2ccc(C#N)cn2)c1C(=O)Nc1ccc(S(C)(=O)=O)cc1` [Example 246, 5-[(5-cyanopyridin-2-yl)amino]-3-methyl-N-[4-(methylsulfonyl)phenyl]-1,2-thiazole-4-carboxamide], > 20 µM.
On to `CCN(CC)CCNC(=O)c1cccc(NC(=O)c2c(C)nsc2Nc2cnccn2)c1` [Example 247, N-(3-{[2-(diethylamino)ethyl]carbamoyl}phenyl)-3-methyl-5-(pyrazin-2-ylamino)-1,2-thiazole-4-carboxamide], for which the IC50 was > 20 µM.
